Experimental data reported in patent US20220347309A1, “PYRROLOBENZODIAZEPINE RESISTANCE” (ADC THERAPEUTICS SA, priority 2018, published 2022).

Legend:
[1] = system: Karpas ADCr cells (ADCT-301 acquired resistant Karpas-299); experiment: MTS in vitro cytotoxicity, 96 h continuous exposure
Procedure: (§1) To generate a resistant population to either ADCT-301 or SG3199, human anaplastic large cell lymphoma Karpas-299 cells (expressing CD25) were incubated with an approximate IC50 dose of the drug for 96 hours. The cells were then washed and returned to fresh medium until normal cell growth was recovered. This process was repeated until a measurable and stable loss in cytotoxic efficacy was established using the MTS assay.
(§2) To measure the in vitro cytotoxicity with the MTS assay, cells were incubated with a 10-fold dilution range of ADCT-301 or SG3199, and incubated with continuous exposure for 96 hours (at least three cell doubling times under normal cell culture conditions). After incubation the […] AQueous One Solution Cell Proliferation Assay (MTS) was used to measure growth inhibition, by adding 20 μl reagent to the cells and incubating for 3-4 hours, then reading the absorbance at 492 nm. Mean % growth of the ADC or PBD treated cells was calculated relative to an untreated control.
(§3) To measure the cross-resistance of the Karpas ADCR cells to the SG3199 PBD warhead, and the PBDR cells to ADCT-301, the in vitro cytotoxicity assay was carried out as described above, treating the cells with the opposite drug molecule to the one with which they were generated.
(§4) To measure the cross-resistance of the Karpas ADCR and PBDR cells to the PBD dimer warhead SG2000, the in vitro cytotoxicity (MTS) assay was carried out as previously described in Example 2.

[2] = system: Karpas PBDr cells (SG3199 acquired resistant Karpas-299); experiment: as above
Procedure: as §1, §2, §3, §4

NCI-N87 wt cells [3] = experiment: MTS in vitro cytotoxicity, 144 h continuous exposure; type: cell-based, human; details: NCI-N87 wt, 144 h continuous exposure, mean; read-out: IC50
Procedure: (§9) To generate a resistant population to either ADCT-502 or SG3199, human gastric cancer NCI-N87 cells (expressing HER2) were incubated with an approximate IC50 dose of the drug for 144 hours. The cells were then washed and returned to fresh medium until normal cell growth was recovered. This process was repeated until a measurable and stable loss in cytotoxic efficacy was established using the MTS assay.
(§10) To measure the in vitro cytotoxicity with the MTS assay, cells were incubated with a 10-fold dilution range of ADCT-502 or SG3199, and incubated with continuous exposure for 144 hours (at least three cell doubling times under normal cell culture conditions). After incubation the CellTiter 960 AQueous One Solution Cell Proliferation Assay (MTS) was used to measure growth inhibition, by adding 20 μl reagent to the cells and incubating for 3-4 hours, then reading the absorbance at 492 nm. Mean % growth of the ADC or PBD treated cells was calculated relative to an untreated control.
(§11) To measure the cross-resistance of the NCI-N87 ADCR cells to the SG3199 PBD warhead, and the PBDR cells to ADCT-502, the in vitro cytotoxicity assay was carried out as described above, treating the cells with the opposite drug molecule to the one with which they were generated.

[4] = system: NCI-N87 ADCr cells (ADCT-502 acquired resistant); experiment: as above; type: cell-based, human
Procedure: as §9, §10, §11

[5] = system: NCI-N87 PBDr cells (SG3199 acquired resistant); experiment: as above; type: cell-based, human
Procedure: as §9, §10, §11

NCI-N87 ADCr cells [6] = experiment: DNA interstrand cross-linking, comet assay; type: cell-based, human; details: 1 nM ADCT-502 or 1.7 nM SG3199 for 2 hours, then 24 hours
Procedure: (§5) The formation of inter-strand cross-links (ICLs) by either ADCT-502 or SG3199 was measured using the modification of the single cell gel electrophoresis (comet) assay. Cells were treated with 1 nM ADCT-502 or 1.7 nM SG3199 for 2 hours, then washed and incubated for 24 hours under normal cell culture conditions. All cells were irradiated with 18 Gy (5 Gy/min for 3.6 min). ICL formation was quantitated by measuring Olive tail moment (OTM) using the Komet 4 software, and the percentage reduction in OTM compared to an untreated irradiated control.
(§6) The results are shown in FIG. 20 for the ADCR line and FIG. 21 for the PBDR line.

NCI-N87 PBDr cells [7] = experiment: DNA interstrand cross-linking, comet assay; type: cell-based, human; details: 1 nM ADCT-502 or 1.7 nM SG3199 for 2 hours, then 24 hours
Procedure: as §5, §6

NCI-N87 wt cells [8] = experiment: DNA interstrand cross-linking, comet assay; type: cell-based, human; details: 1 nM ADCT-502 or 1.7 nM SG3199 for 2 hours, then 24 hours
Procedure: as §5, §6

Karpas-299 wt cells = experiment: Single dose 2-hour exposure cytotoxicity (MTS); type: cell-based, human; details: 130 pM ADCT-301 or 280 pM SG3199 for 2 hours, then 96 hours, vs untreated control
Karpas ADCr cells = experiment: Single dose 2-hour exposure cytotoxicity (MTS); type: cell-based, human; details: 130 pM ADCT-301 or 280 μM SG3199 (legend: pM) for 2 hours, then 96 hours
Procedure: (§7) To investigate growth inhibition under the same conditions under which DNA ICL formation was measured, Karpas-ADCR cells were treated with 130 pM ADCT-301, and Karpas-PBDR cells treated with 280 pM SG3199 for 2 hours, then washed and incubated for 96 hours under normal cell culture conditions. The MTS assay and calculation of % growth compared to the untreated control was carried out as previously described.
(§8) To investigate whether the cross-resistance in ICL formation observed in the Karpas resistant cell lines also correlates with growth inhibition at this dose, ADCR cells were treated with 280 μM SG3199, and PBDR cells treated with 130 μM ADCT-301 for 2 hours, then washed and incubated for 96 hours under normal cell culture conditions. The MTS assay and calculation of % growth compared to the untreated control was carried out as previously described. The results are shown in FIG. 22 for the ADCR line and FIG. 23 for the PBDR line.

Karpas PBDr cells = experiment: Single dose 2-hour exposure cytotoxicity (MTS); type: cell-based, human; details: 130 μM ADCT-301 (legend: pM) or 280 pM SG3199 for 2 hours, then 96 hours
Procedure: as §7, §8

NCI-N87 ADCr cells [9] = experiment: Single dose 2-hour exposure cytotoxicity (MTS); type: cell-based, human; details: 1 nM ADCT-502 or 1 nM SG3199 for 2 hours, then 144 hours
Procedure: as §7, with “NCI-N87-ADCR” for “Karpas-ADCR”, “1 nM ADCT-502,” for “130 pM ADCT-301,”, “PBDR” for “Karpas-PBDR”, “1.7 nM” for “280 pM”, “144” for “96”
as §8, with “NCI-N87” for “Karpas”, “1 nM” for “280 μM”, “1.7 nM ADCT-502” for “130 μM ADCT-301”, “144” for “96”, “24” for “22”, “25” for “23”

NCI-N87 PBDr cells [10] = experiment: Single dose 2-hour exposure cytotoxicity (MTS); type: cell-based, human; details: 1.7 nM ADCT-502 or 1.7 nM SG3199 for 2 hours, then 144 hours
Procedure: as §7, with “NCI-N87-ADCR” for “Karpas-ADCR”, “1 nM ADCT-502,” for “130 pM ADCT-301,”, “PBDR” for “Karpas-PBDR”, “1.7 nM” for “280 pM”, “144” for “96”
as §8, with “NCI-N87” for “Karpas”, “1 nM” for “280 μM”, “1.7 nM ADCT-502” for “130 μM ADCT-301”, “144” for “96”, “24” for “22”, “25” for “23”

[11] = system: human tumor cell lines expressing MDR1; details: cited from earlier work

COc1cc2c(cc1OCCCCCOc1cc3c(cc1OC)C(=O)N1C=C(C)C[C@H]1C=N3)N=C[C@@H]1CC(C)=CN1C2=O [SG3199]
fold resistance compared to wildtype ([1]; Karpas ADCr vs Karpas wt IC50): 4.4 fold | IC50 ([1]; read-out: IC50 pM, Karpas ADCr, 96 h continuous exposure, mean): 306 pM | fold resistance compared to wildtype ([2]; Karpas PBDr vs Karpas wt IC50): 2.9 fold | IC50 ([2]; read-out: IC50 pM, Karpas PBDr, 96 h continuous exposure, mean): 205 pM | IC50 (NCI-N87 wt cells [3]): 0.0159 nM | fold resistance compared to wildtype ([4]; NCI-N87 ADCr vs NCI-N87 wt IC50): 3.8 fold | IC50 ([4]; NCI-N87 ADCr, 144 h continuous exposure, mean, read-out: IC50): 0.0604 nM | fold resistance compared to wildtype ([5]; NCI-N87 PBDr vs NCI-N87 wt IC50): 3.7 fold | IC50 ([5]; NCI-N87 PBDr, 144 h continuous exposure, mean, read-out: IC50): 0.0586 nM | % red. OTM (NCI-N87 ADCr cells [6]): 24% | % red. OTM (NCI-N87 PBDr cells [7]): 30.7% | % red. OTM (NCI-N87 wt cells [8]): 51.0% | 2 hr mean % growth (Karpas-299 wt cells): 33.8% | 2 hr mean % growth (Karpas ADCr cells): 86.3% | 2 hr mean % growth (Karpas PBDr cells): 78.5% | 2 hr mean % growth (NCI-N87 ADCr cells [9]): 57.2% | 2 hr mean % growth (NCI-N87 PBDr cells [10]): 76.6% | susceptibility to multidrug resistance mechanisms [11]: susceptible to multidrug resistance mechanisms
